This passage reports Activity and Ki results from ChEMBL document CHEMBL1152426, “Synthetic strategies toward carbocyclic purine-pyrimidine hybrid nucleosides” (Bioorg Med Chem, 2009).

Active and inactive are the calls of the source. The rule behind the calls is not given here.

Assay [1] is described as follows: Inhibition of S-adenosylhomocystein hydrolase.
Assay [2] can be described thus: Inhibition of DNA methyltransferase.
Assay [3] can be described thus: Inhibition of S-adenosylhomocystein hydrolase in presence of 10 uM of S-adenosylhomocystein.
Assay [4] is described as follows: Inhibition of S-adenosylhomocystein hydrolase at 45 uM in presence of S-adenosylhomocystein.

Regarding `O=c1[nH]c(=O)n([C@@H]2CC[C@@H](O)[C@H]2O)c2ncsc12`, the result in assay [1] and in assay [2] was inactive.
In general, Ki refers to the equilibrium dissociation constant of an inhibitor or competing ligand from its target. Higher therefore signals lower affinity. For the molecule `O=c1[nH]c(=O)n([C@@H]2CC[C@@H](O)[C@H]2O)c2nc[nH]c12`, the Ki in assay [1] is 5 µM. Further, the outcome in assay [3] and in assay [4] was Active. The result in assay [2] was inactive.
